US9446071B2, “Antimicrobially active compositions based on zinc compound, glycerine monoalkyl ether and antioxidant” (L'AIR LIQUIDE SOCIETE ANONYME POUR L'ETUDE ET …, priority 2012, dated 2016)

System: Streptococcus mutans ATCC: 25175
Experiment: Minimal inhibitory concentration (method C) of mouthwash formulations
Assay type: cell-based
Settings: pH 4
Procedure: The minimal inhibitory concentration which is required by a preparation in order to inhibit the growth of a defined microorganism is tested.
5 ml of the given product test solution (optionally doubly concentrated) is mixed with 5 ml of doubly concentrated CSS broth. The tubes are then inoculated with 0.1 ml of a test suspension containing 10^8 microbes.
The assessment is performed after 48 hr incubation at 36° C.±1° C. (C. albicans 30° C.±1° C.).
Further, the action of combinations according to the invention against the caries-causing organism Streptococcus mutans in the mouthwash formulations shown in Table 10 was tested.
The pH of the formulations was adjusted to pH 4.

Molecule	Activity against Streptococcus mutans
PEG-40 macrogol glycerol hydroxystearate [Mghs]	no intrinsic activity
O=C([O-])CC(O)(CC(=O)[O-])C(=O)[O-].O=C([O-])CC(O)(CC(=O)[O-])C(=O)[O-].[Zn+2].[Zn+2].[Zn+2] [TZC, trizinc citrate]	not sufficient
